# Measurements taken from ChEMBL document CHEMBL3124761, “Synthesis and biological evaluation of N,N'-squaramides with high in vivo efficacy and low toxicity: toward a low-cost drug against Chagas disease” (J Med Chem, 2014).
# Calls of active or inactive are those of the source. No cut-off for these calls is given here.
# Experiments:
# [1] = tested on: Trypanosoma cruzi; assay: Trypanocidal activity against metacyclic trypomastigote stage of Trypanosoma cruzi infected in BALB/c albino mouse acute chagas disease model assessed as reduction of parasite burden at 25 mg/kg, ip administered on day 7 to 12 post-infection measured on day 14 by ELISA; type: functional, organism-based; parameters: dose 25 mg/kg
# [2] = Dissociation constant, pKa of the compound in aqueous solution; type: physicochemical
# [3] = tested on: Trypanosoma cruzi; assay: Antitrypanosomal activity against amastigote stage of Trypanosoma cruzi IRHOD/CO/2008/SN3 infected in African green monkey Vero cells assessed as decrease in infection rate at IC25 preincubated for 12 hrs followed by compound washout measured every 48 hrs for 10 days by Neubauer hemocytometric chamber analysis relative to control; type: functional
# [4] = tested on: Mus musculus; assay: Toxicity in BALB/c albino mouse infected with blood trypomastigote stage of Trypanosoma cruzi assessed as increase in urea level in serum at 500 mg/kg, ip; type: organism-based; parameters: dose 500 mg/kg, route intraperitoneal; conditions: in vivo
# [5] = tested on: Trypanosoma cruzi; assay: Antitrypanosomal activity against epimastigote stage of Trypanosoma cruzi IRHOD/CO/2008/SN3 assessed as change in excreted lactate level at IC25 after 96 hrs by 1H NMR analysis relative to control; type: functional
# [6] = tested on: Mus musculus; assay: Toxicity in BALB/c albino mouse infected with blood trypomastigote stage of Trypanosoma cruzi assessed as change in urea level in serum at 25 mg/kg, ip administered on day 7 to 12 post-infection measured after day 120 relative to control; type: organism-based; parameters: dose 25 mg/kg, route intraperitoneal; conditions: in vivo
# [7] = tested on: Mus musculus; assay: Toxicity in BALB/c albino mouse infected with blood trypomastigote stage of Trypanosoma cruzi assessed as change in creatinephophokinase-MB level in serum at 40 mg/kg, ip administered on day 7 to 12 post-infection measured after day 150 relative to control; type: organism-based; parameters: dose 40 mg/kg, route intraperitoneal; conditions: in vivo
# [8] = tested on: Mus musculus; assay: Toxicity in BALB/c albino mouse infected with blood trypomastigote stage of Trypanosoma cruzi assessed as change in uric acid level in serum at 40 mg/kg, ip administered on day 7 to 12 post-infection measured after day 150 relative to control; type: organism-based; parameters: dose 40 mg/kg, route intraperitoneal; conditions: in vivo
# [9] = tested on: Mus musculus; assay: Toxicity in BALB/c albino mouse infected with blood trypomastigote stage of Trypanosoma cruzi assessed as increase in total bilirubin level in serum at 25 mg/kg, ip administered on day 7 to 12 post-infection measured after day 120 relative to control; type: organism-based; parameters: dose 25 mg/kg, route intraperitoneal; conditions: in vivo
# [10] = tested on: Mus musculus; assay: Toxicity in BALB/c albino mouse assessed as mortality at 25 mg/kg, ip administered for 5 days; type: organism-based; parameters: dose 25 mg/kg, route intraperitoneal; conditions: in vivo, 120 h
# [11] = tested on: Mus musculus; assay: Toxicity in BALB/c albino mouse infected with blood trypomastigote stage of Trypanosoma cruzi assessed as increase in LDH level in serum at 25 mg/kg, ip administered on day 7 to 12 post-infection measured after day 120 relative to control; type: organism-based; parameters: dose 25 mg/kg, route intraperitoneal; conditions: in vivo
# [12] = tested on: Mus musculus; assay: Toxicity in BALB/c albino mouse infected with blood trypomastigote stage of Trypanosoma cruzi assessed as change in creatinephophokinase-MB level in serum at 25 mg/kg, ip administered on day 7 to 12 post-infection measured after day 120 relative to control; type: organism-based; parameters: dose 25 mg/kg, route intraperitoneal; conditions: in vivo
# [13] = tested on: Mus musculus; assay: Toxicity in BALB/c albino mouse infected with blood trypomastigote stage of Trypanosoma cruzi assessed as decrease in ALT/GPT level in serum at 40 mg/kg, ip administered on day 7 to 12 post-infection measured after day 150 relative to control; type: organism-based; parameters: dose 40 mg/kg, route intraperitoneal; scale not given: the % may be the effect or the level left; conditions: in vivo
# [14] = tested on: Trypanosoma cruzi; assay: Antitrypanosomal activity against epimastigote stage of Trypanosoma cruzi IRHOD/CO/2008/SN3 assessed as parasite growth inhibition after 72 hrs by Neubauer hemocytometric chamber analysis; type: functional, organism-based; conditions: IRHOD/CO/2008/SN3, 72 h
# [15] = tested on: Mus musculus; assay: Toxicity in BALB/c albino mouse infected with blood trypomastigote stage of Trypanosoma cruzi assessed as increase in uric acid level in serum at 25 mg/kg, ip administered on day 7 to 12 post-infection measured after day 120 relative to control; type: organism-based; parameters: dose 25 mg/kg, route intraperitoneal; conditions: in vivo
# [16] = tested on: Trypanosoma cruzi; assay: Antitrypanosomal activity against epimastigote stage of Trypanosoma cruzi IRHOD/CO/2008/SN3 assessed as change in excreted acetate level at IC25 after 96 hrs by 1H NMR analysis relative to control; type: functional
# [17] = tested on: Trypanosoma cruzi; assay: Antitrypanosomal activity against epimastigote stage of Trypanosoma cruzi IRHOD/CO/2008/SN3 assessed as mortality at IC25 after 72 hrs by TEM analysis; type: functional, organism-based
smiles,measurement,setting,value
CCCCNc1c(N(C)CCCN(C)C)c(=O)c1=O,Activity,[1],Active
same,pKa,[2],8.8
same,inhibition (INH),[3],67%
same,Activity,[4],30%
same,Activity,[5],-28.3%
same,Activity,[6],< 10%
same,Activity,[7],< 10%
same,Activity,[8],< 10%
same,Activity,[9],10%
same,Activity,[10],Non-toxic
same,Activity,[11],10%
same,Activity,[12],< 10%
same,Activity,[13],10%
same,IC50,[14],9.4 µM
same,Activity,[15],30%
same,Activity,[16],-18.6%
same,Activity,[17],Active
